Experimental data from patent US20130045890A1, “TEST FOR MALE FERTILITY” (Rigshospitalet Copenhagen University Hospital, priority 2010, published 2013).
Where “and” joins values, the source holds several entries; their conditions need not be identical. Equal entries are not always repeated. Entries after “also recorded” stand apart in the source; their conditions may differ.

How the values were obtained:
[1] = system: human spermatozoa; assay: Intracellular free calcium ([Ca2+]i) by single cell fura-2 imaging in human spermatozoa; assay type: cell-based; conditions: for effect of non-genomic VDR antagonist pretreatment on the calcium response to 1,25(OH)2D3: pretreatment 1-40 μM
Method: The intracellular free calcium concentration ([Ca2+]i) was measured in human spermatozoa from 12 normal men. Freshly delivered semen samples went through percoll density gradient centrifugation to optimize the number of spermatozoa expressing VDR and the metabolising enzymes. […] Subsequently 80 μl sperm content were diluted in 920 μl Krebs-Ringer buffer and were loaded on polynysine-coated chambers to minimize movement of the vital spermatozoa (Lab-Tek; Nalge Nunc International, USA).
Excitation was obtained by a Polychrome V illuminator from Till Photonics (Germany) and images were acquired using a Cool Snap CCD camera (Photometrics, USA) from Robert Scientific (Malaysia).
After background subtraction, ratio images were formed using MetaFluor software.
Semen samples were separated by percoll density gradient centrifugation to ensure viable and motile spermatozoa and resuspended in capacitating media for 1.5 hours. Afterwards, loaded with 3 μM of the fluorescent probe (intracellular calcium binding) fura-2/AM (Invitrogen, USA) for 30 min, centrifuged (10 min at 300 g) and washed with Krebs-Ringer buffer (120 mM NaCl, 15 mM NaHCO3, 5 mM KCl, 1 mM CaCl2, 5 mM Na2HPO4, 1 mM MgCl2 pH 7.3). […] Subsequently, 80 μl of the sperm sample was diluted in 920 μl Krebs-Ringer buffer and loaded on polylysine-coated chambers to minimize movement of the spermatozoa (Lab-Tek; Nalge Nunc International, USA). […] Excitation was obtained by a Polychrome Villuminator from Till Photonics (Germany) and images were acquired using a Cool Snap CCD camera (Photometrics, USA) from Robert Scientific (Malaysia). […] After background subtraction, ratio images were formed using MetaFluor software.
All experiments started by using low magnification to ensure visibility of several spermatozoa simultaneously. […] All measurements of [Ca2+]i were based upon evaluation of at least three spermatozoa simultaneously (see exact number in figure legends), and were repeated in at least three separate experiments. We used 10 different semen donors to ensure that all experiments were reproduced on semen samples from at least two different men.

[2] = system: human spermatozoa; assay: Acrosome reaction of motile spermatozoa (Pisum sativum agglutinin-FITC staining); assay type: cell-based
Method: Acrosome status was assessed according to a modified version of the method described by Cross et al. 1986. […] . When more than half the head of a spermatozoon was brightly and uniformly fluorescent, the acrosome was considered to be intact. Spermatozoa without fluorescence or with a fluorescing band limited to the equatorial segment were considered to be acrosome-reacted. Spermatozoa with a fluorescing band limited to the equatorial segment were named eq-AR. The person assessing the slides was blinded to the treatment of the sample.

[3] = system: human spermatozoa; assay: Induction of sperm motility (ABC motility) in semen samples in vitro; conditions: for sperm motility (ABC) in young normal men: 1 nM 1,25(OH)2D3, p=0.01; for sperm motility in infertile/subfertile men: 1 nM 1,25(OH)2D3, p=0.80
Method: The preparation was placed on the heating stage of a microscope at 37° C. and immediately examined at x400 magnification counting 200 spermatozoa. The sperm were classified as progressive motile (WHO class A+B), non-progressive motile (class C) or immotile (class D). The motility counting was repeated on a second aliquot of 10 μl well-mixed semen.
The participants produced a semen sample by masturbation. Self-reported information of duration of ejaculation abstinence was obtained. Trained technicians conducted semen analysis Semen volume was estimated by weighing. For sperm motility assessment, duplicates of 10 μl of well-mixed semen were placed on a glass slide, examined on a heating stage kept at 37° C., under a microscope at ×400 magnification, and spermatozoa were classified as progressive motile (WHO class A+B), non-progressive motile (class C) or immotile (class D). The average of the two motility assessments was used. For the assessment of the sperm concentration the samples were diluted in a solution of 0.6 mol/l NaHCO3 and 0.4% (v/v) formaldehyde in distilled water, and subsequently assessed using Bürker-Türk haemocytometer. Only spermatozoa with tails were counted. Finally, smears were prepared, Papanicolaou stained and spermatozoa morphology assessed according to strict criteria.
Their semen samples were assessed as described above. […] Motility assessment was conducted in 17 samples (in duplicates) under non-capacitating conditions (in their seminal plasma), and 3 samples were also analyzed in capacitating conditions. 7 consecutively included men were used to investigate a dose-response relationship between VD and sperm motility.

[4] = 1,25(OH)2D3 after pretreatment with nifedipine 10 μM
[5] = higher 1,25(OH)2D3 concentrations

C=C1/C(=C\C=C2/CCC[C@]3(C)[C@@H]([C@H](C)CCCC(C)(C)O)CC[C@@H]23)C[C@@H](O)C[C@@H]1O [1,25(OH)2D3, 1,25-dihydroxyvitamin D3]
effect of pre-treatment with 1,25(OH)2D3 on the calcium effect of progesterone [1]: could not be abrogated | maximum amplitude of the calcium increase, higher than baseline calcium level ([1]; 1 nM 1,25(OH)2D3): 5-10 fold | calcium response in non-capacitating media ([1]; 1 nM 1,25(OH)2D3, versus capacitating media): lower amplitude | amplitude relative to the amplitude elicited by 10 μM progesterone ([1]; 1,25(OH)2D3 (1 nM elsewhere in the source)): 40% and 40-80% | effect on intracellular calcium ([1]; 1,25(OH)2D3, printed range 50 μM-10 μM, 100 μM-10 μM): induced a rapid increase in intracellular calcium | increase in intracellular calcium from baseline ([1]; 1,25(OH)2D3 added to motile spermatozoa, calcium containing medium): 5-10 fold | length of repolarisation phase [1, 4]: 4 min | maximum amplitude of calcium increase, higher than baseline [1, 4]: 7 fold | threshold for the observed all-or-nothing calcium response ([1]; 1,25(OH)2D3 concentration): 10 to 50 µM | duration of plateau phase ([1]; <10 nM 1,25(OH)2D3): up to 50 sec | start of the calcium increase in the neck region ([1]; after addition of 1,25(OH)2D3): ≤ 5 s | increase in [Ca2+]i in calcium free media with EGTA (words) ([1]; calcium free media, 5 μM EGTA): Neither, 1,25(OH)2D3 nor progesterone were able to induce an increase in intracellular calcium; also recorded: could not induce an increase in [Ca2+]i | dependence of amplitude on concentration [1, 5]: did not seem to increase markedly with higher concentration; also recorded: did not increase with higher 1,25(OH)2D3 concentrations | duration of plateau phase [1, 5]: 50 to 300 s | calcium response in calcium free media without EGTA ([1]; potentially contaminated [Ca2+]<5 uM): marked response; also recorded: increased intracellular calcium rapidly | median percentage of spermatozoa with an equatorial band (eq. AR) ([2]; 1,25(OH)2D3 10^-9M (control 4.7%), p=0.214): 5.3% | median percentage of acrosome reacted spermatozoa ([2]; 1,25(OH)2D3 10^-9M, capacitating media (control 12%)): 21% | average increase in acrosome reacted spermatozoa ([2]; 1,25(OH)2D3 10^-9M, capacitating media, p=0.024): 6% | acrosome reacted spermatozoa in non-capacitating conditions ([2]; NaCl, 6 men, VD treated (control 3.7%)): 4.2% | sperm motility (ABC) in young normal men [3]: increased significantly; also recorded: modest increase in sperm motility | sperm motility (ABC) in young normal men ([3]; listed as calcitriol): significant increase in normal men | sperm motility in infertile/subfertile men [3]: did not increase; also recorded: no increase in sperm motility | sperm motility in infertile/subfertile men ([3]; listed as activated VD): did not increase in sperm motility | sperm motility in infertile/subfertile men ([3]; listed as calcitriol): unable to increase motility in infertile men | increase in median sperm motility (ABC) ([3]; 1,25(OH)2D3 10-14M to 10^-9M, dose-response, 7 men): 2-7% | median decrease in sperm motility compared with control ([3]; 1,25(OH)2D3 10^-5M): 15% | median increase in sperm motility (ABC) ([3]; 1,25(OH)2D3 10^-9M, p=0.006): 7% | sperm motility ([3]; 1,25(OH)2D3 concentrations above 10^-7M): decreased motility compared with control | increase in mean sperm motility ([3]; 10^-9M 1,25(OH)2D3, 30 min, room temperature, 17 men, p=0.010): 2.9%

C=C1/C(=C\C=C2/CCC[C@]3(C)[C@@H]([C@H](C)CCCC(C)(C)O)CC[C@@H]23)C[C@@H](O)C[C@H]1O [1β, 25(OH)2D3]
effect of non-genomic VDR antagonist pretreatment on the calcium response to 1,25(OH)2D3 ([1]; 1 nM calcitriol): completely blocked; also recorded: abrogated the response to 1,25(OH)2D3 completely | effect of non-genomic VDR antagonist pretreatment on the calcium response to 1,25(OH)2D3 ([1]; 1 nM calcitriol, listed as 1β,25(OH) 2D3): blocked completely

C=C1CC[C@H](O)C/C1=C/C=C1\CCC[C@]2(C)[C@@H]([C@H](C)CCCC(C)(C)O)CC[C@@H]12 [25-OH D3, 25-hydroxycholecalciferol]
effect on intracellular calcium ([1]; 25-OH D3 up to 100 nM, normal media): no effect on intracellular calcium levels | effect on intracellular calcium ([1]; 25-OH D3 up to 100 nM, normal media, listed as 25-0H D3): unable to elicit an increase in [Ca2+]i

COc1ccc2c(c1)CC[C@@H]1[C@@H]2CC[C@]2(C)[C@@H](NCCCCCCN3C(=O)C=CC3=O)CC[C@@H]12 [U73122, 1-[6-[[17fi-3-methoxyestra-1,3,5(10)-trien-17-yl]amino]hexyl]-1H-pyrrole-2,5-dione]
effect on the calcium response to 1,25(OH)2D3 ([1]; 2 μM U73122, no concentration): unable to induce a rapid increase in [Ca2+]i; also recorded: caused a delayed and diminished response to 1,25(OH)2D3 | effect on the rapid calcium increase elicited with 1 nM 1,25(OH)2D3 ([1]; 5 μM U73122): delayed in these spermatozoa and the amplitude was smaller or absent | spermatozoa that remained low and stable in intracellular calcium ([1]; 5 μM U73122, normal calcium containing media): 10-20% | increase of baseline [Ca2+]i ([1]; 10 μM U73122): more than 5 fold | spermatozoa that increased their baseline [Ca2+]i ([1]; 10 μM U73122): > 80% | effect of PLC inhibition on the calcium effect of progesterone ([1]; U73122): unable to abrogate the effect of progesterone

C=C1/C(=C\C=C2/CCC[C@]3(C)[C@@H]([C@H](C)/C=C/[C@@H](O)C4(C(=O)OCCCC)CC4)CC[C@@H]23)C[C@@H](O)C[C@@H]1O [ZK159222]
effect of nuclear VDR antagonist on the calcium response to 1,25(OH)2D3 ([1]; ZK159222 0.1-100 μM, 1 nM calcitriol): could not be abrogated; also recorded: unable to abrogate or suppress the effect of 1,25(OH)2D3 treatment

C[C@H](CCC(=O)O)C[C@H](C)C[C@H](C)C(=O)/C=C(\O)[C@H](C)C[C@H](C)C/C=C/[C@@H](C)[C@@H](O)[C@@H](C)[C@@H](O)C[C@@H]1CC[C@@](C)([C@H]2CC[C@@](C)([C@@H](C)O)O2)O1 [ionomycin]
increase in [Ca2+]i in calcium free media with EGTA (words) ([1]; ionomycin 500 nM): low but significant increase in the intracellular calcium; also recorded: elicited only a small Ca2+ rise | amplitude of the response from baseline ([1]; ionomycin 500 nM, calcium free media with EGTA): < 3 fold | increase in [Ca2+]i in calcium free media with EGTA (words) ([1]; ionomycin 500 nM, listed as Ionomycin): low but reproducible increase in [Ca2+]i

CC(=O)[C@H]1CC[C@H]2[C@@H]3CCC4=CC(=O)CC[C@]4(C)[C@H]3CC[C@]12C [progesterone]
increase in [Ca2+]i in calcium free media with EGTA (words) ([1]; calcium free media, 5 μM EGTA): Neither, 1,25(OH)2D3 nor progesterone were able to induce an increase in intracellular calcium; also recorded: could not induce an increase in [Ca2+]i

C/C=C(/C)C(=O)O[C@H]1C(C)=C2[C@H]([C@@H]1OC(=O)CCCCCCC)[C@@](C)(OC(C)=O)C[C@H](OC(=O)CCC)[C@@]1(O)[C@H]2OC(=O)[C@@]1(C)O [thapsigargin]
effect on baseline calcium concentration ([1]; thapsigargin 4 μM): caused a slow increase in baseline calcium concentration | calcium response to 1,25(OH)2D3 after thapsigargin ([1]; thapsigargin 4 μM, 1,25(OH)2D3 added 9 min later): unable to elicit a substantial calcium response; also recorded: diminished the effect of 1,25(OH)2D3 | stable plateau, higher than baseline calcium concentration ([1]; thapsigargin 4 μM, nine minutes after exposure): 3 fold | calcium response to 1,25(OH)2D3 after thapsigargin ([1]; thapsigargin <1 μM): unable to abrogate the effect of 1,25(OH)2D3
